# Tests used:
# [1] = pH change of storage solution on freezing (phenol red); assay type: physicochemical; conditions: phenol red in storage solution
# Excerpt: The pH can change dramatically as a function of freezing and holding temperature. Depending on the components of the storage solution, the biologic sample can be exposed to an acidic or a basic environment. These changes can be determined by adding phenol red to the storage solution. […] This pH change is relevant and can affect the preservation media. To counter these fluctuations in pH, the goal is to introduce “counter ions” which can balance the pH change.
# [2] = test system: livers (parenchyma and endothelial cells)
# Excerpt: In the experiments, endothelial damage occurred as a result of the loading process of high viscosity solutions. This liver was not frozen and was only subjected to the loading protocol with 10% glycerol as the main cryoprotectant.
# A stepwise loading protocol was preformed to address this issue. The liver was sampled for histology and endothelial analysis immediately after CPA loading. Thus, all livers presented were not frozen/stored and had the independent damage of the loading protocol only. Furthermore, the loading protocol was redesigned with special consideration for the impact of dramatic changes in osmolality between distinct phases of CPA loading. Thus, a step-wise loading protocol was finalized.
# The stepwise loading protocol was tested in the following way: (1) “Loading 1” refers to the 3-OMG loading phase which is essential for intracellular delivery of this CPA. 3-OMG is loaded using the subnormothermic cocktail containing a William's E media base supplemented with heparin, hydrocortisone, insulin, etc.
# First, livers were continuously perfused with either 50 or 100 mM 3-OMG at subnormothermic temperatures for 60 minutes (“Loading 1”) and were immediately sampled for histology.
# After the experiment was stopped, livers were sampled for histology.
# [3] = test system: Human Umbilical Vein Endothelial Cells (HUVEC); assay: Cryostage freeze-thaw of endothelial cell-coated microchannels (cell attachment, membrane integrity); assay type: cell-based; conditions: with Snomax
# Method: Prior to coating with endothelial cells, microchannels were sonicated briefly (3 min in isopropanol; Branson 200, Branson Ultrasonics), and then rinsed with PBS. Channels were then coated with 1 mg/mL fibronectin (dissolved in sterile PBS, total of 10 μl) and incubated for 60 min at 37° C. After a priming step, HUVEC cells were trypsinized, counted, and re-suspended in EBM-2 complete media (˜10.0×10^6 cells per mL). Cells were subsequently introduced to the cell seeding port and incubated at 37° C. 5% CO2 for 30 min (FIG. 1A). Final constriction diameters of cellularized microchannels varied from ˜10 to 20 μm across the lengths of individual channels due to the presence of cellular nuclei along channel walls. Coated microchannels were then fed under continuous gravity flow using a pipet tip containing media and inserted into the delivery port to generate flow in the reverse direction from loading (FIG. 1A). Pipet tips (200 μl) filled with media provided an initial hydrostatic head of 2.5 cm H2O. Cells incubated at 37° C. 5% CO2 up to 3 days with daily replacement of tips with filled media before proceeding to experimentation. […] Control, unfrozen microchannels were stained with Calcein green (1:1000), Hoescht (H3570; 1:1000 v:v), and propidium iodide (4 μg/mL) for 20 min and imaged, while microchannels imaged prior to experimentation/freezing were only stained with Calcein green (1:1000). These experimental microchannels were subsequently stained after experimentation/freezing with Hoescht (H3570; 1:1000 v:v), and propidium iodide (4 μg/mL).
# Endothelial cell-coated microchannels were prepared, and placed on the silver block of a FDCS196 cryostage (Linkam Scientific Instruments Ltd, London, UK), the temperature of which was controlled by the TMS 94 temperature controller with the accuracy of ±0.1° C. Microchannels bonded to glass slides were cut into individual devices so they would fit on the silver block of the Linkam cryostage. A PixeLINK PL-A662 camera (PixeLINK, Ottawa, Canada) was used to visualize ice formation and propagation. In all cases, ice nucleation temperature was recorded and ice propagation throughout the device was confirmed by direct visual inspection (FIG. 7). Prior to freezing, endothelial cell-coated microchannels in the 3-O-methyl-D-glucopyranose (3-OMG) experimental group were incubated with EBM-2 complete media supplemented with either 50 or 100 mM 3-OMG at 37° C. to promote intracellular transport of the glucose analog. Supplementation of 3-OMG in the basal media and incubation at 37° is an effective method for intracellular delivery of 3-OMG. […] Snomax (Snomax International, Englewood, CO, USA) was used as the model ice nucleator in this study (1 mg/mL). Microchannels were perfused with PBS containing ice nucleators and/or cryoprotectant agents for 10 min prior to beginning the cooling profile. During the freezing experiment, the temperature was first cooled at 10° C./min to 4° C. After thermal stabilization, a cooling rate of 1° C./min was applied until reaching the holding temperature. […] For microchannels which contained Snomax, ice was observed <−6° C. in all cases, and channels were cooled to −6, −10, or −20° C. At the lowest holding temperature, microchannels were held for 3-5 min before a rapid rewarming at +30° C./min (FIG. 1C). After rewarming, microchannels were stained with Hoescht (nuclear) and propidium iodide (membrane integrity) dissolved in EBM-2 complete media for 20 min and imaged, in which the cell membrane integrity was used as a discriminator of live and dead cells.
# Cell attachment values were quantified by counting the total number of Hoechst positive cells (i.e. total number of cell nuclei) and dividing by the total number of channels (each device has maximum of 16 channels). Membrane integrity was quantified by counting the number of propidium iodide positive cells divided by the total number of Hoechst positive cells. […]
# [4] = test system: Human Umbilical Vein Endothelial Cells (HUVEC); assay: Endothelial cell attachment with CPAs without freezing (FIG. 9); assay type: cell-based; conditions: 100 mM 3-OMG, p=0.6995
# Method: Prior to coating with endothelial cells, microchannels were sonicated briefly (3 min in isopropanol; Branson 200, Branson Ultrasonics), and then rinsed with PBS. Channels were then coated with 1 mg/mL fibronectin (dissolved in sterile PBS, total of 10 μl) and incubated for 60 min at 37° C. After a priming step, HUVEC cells were trypsinized, counted, and re-suspended in EBM-2 complete media (˜10.0×10^6 cells per mL). Cells were subsequently introduced to the cell seeding port and incubated at 37° C. 5% CO2 for 30 min (FIG. 1A). Final constriction diameters of cellularized microchannels varied from ˜10 to 20 μm across the lengths of individual channels due to the presence of cellular nuclei along channel walls. […]
# Cell attachment values were quantified by counting the total number of Hoechst positive cells (i.e. total number of cell nuclei) and dividing by the total number of channels (each device has maximum of 16 channels). Membrane integrity was quantified by counting the number of propidium iodide positive cells divided by the total number of Hoechst positive cells. Cell attachment and membrane integrity are expressed as box-and-whiskers plots showing median, interquartile range, maxima, and minima (n=4-8). […]
compound,measurement,setting,value
O=C([O-])O.[Na+] [sodium bicarbonate],pH change of solution as the result of freezing,[1],became basic
OCC(O)CO [glycerol],cell death after loading that was not stepwise (FIG. 15A),[2],majority of cell death evident in endothelial cells
"CO[C@H]1[C@H](O)[C@@H](CO)OC(O)[C@@H]1O (stereo partly drawn) [3-OMG, 3-O-methyl-D-glucopyranose]",cell attachment,"[3]; 50 mM 3-OMG, Thold −6° C.",33.2±9.1 cells/lane
same,percent PI positive cells (membrane integrity),"[3]; 50 mM 3-OMG, Thold −6° C.",7.4±3.7%
same,cell attachment,"[3]; 50 mM 3-OMG, Thold −10° C.",15.1±8.2 cells/lane
same,percent PI positive cells (membrane integrity),"[3]; 50 mM 3-OMG, Thold −10° C.",38.1±7.5%
same,cell attachment,"[3]; 100 mM 3-OMG, Thold −6° C.",31.4±6.6 cells/lane
same,percent PI positive cells (membrane integrity),"[3]; 100 mM 3-OMG, Thold −6° C.",7.3±2.8%
same,cell attachment,"[3]; 100 mM 3-OMG, Thold −10° C.",33.6±8.8 cells/lane
same,percent PI positive cells (membrane integrity),"[3]; 100 mM 3-OMG, Thold −10° C.",20.5±12.4%
same,cell attachment versus unfrozen controls without CPAs,[4],no statistical significant difference

# Reference: patent US12058996B2, “High subzero cryopreservation” (The General Hospital Corporation, priority 2017, dated 2024)
